Measurements published in US7700272B2, “Polynucleotides encoding acetylcholine-gated chloride channel subunits of Caenorhabditis elegans” (priority 2004, dated 2010).
“Also recorded” adds a separate entry of the source. Read-outs that look alike come from different tables or passages of the source. Marks after values point to notes of the source that are not given here.

What was measured:
[1] = target: T1, ACC-1G6.4 channel (Caenorhabditis elegans, UniProt Q21005); assay: Two-electrode voltage-clamp of Xenopus oocytes expressing ACC-1G6.4 homomeric channel; type: cell-based, C. elegans; details: for response (in words): 1 mM
T1 construct: Agonist: percentage of maximal acetylcholine-elicited response; other: compound at 0.1 mM; Agonist: percentage of maximal acetylcholine-elicited response; other: compound at 0.2 mM; other: compound at 0.4 mM; other: compound at 0.8 mM; Agonist: percentage of maxim
T1 sequence (Q21005 whole entry, looked up): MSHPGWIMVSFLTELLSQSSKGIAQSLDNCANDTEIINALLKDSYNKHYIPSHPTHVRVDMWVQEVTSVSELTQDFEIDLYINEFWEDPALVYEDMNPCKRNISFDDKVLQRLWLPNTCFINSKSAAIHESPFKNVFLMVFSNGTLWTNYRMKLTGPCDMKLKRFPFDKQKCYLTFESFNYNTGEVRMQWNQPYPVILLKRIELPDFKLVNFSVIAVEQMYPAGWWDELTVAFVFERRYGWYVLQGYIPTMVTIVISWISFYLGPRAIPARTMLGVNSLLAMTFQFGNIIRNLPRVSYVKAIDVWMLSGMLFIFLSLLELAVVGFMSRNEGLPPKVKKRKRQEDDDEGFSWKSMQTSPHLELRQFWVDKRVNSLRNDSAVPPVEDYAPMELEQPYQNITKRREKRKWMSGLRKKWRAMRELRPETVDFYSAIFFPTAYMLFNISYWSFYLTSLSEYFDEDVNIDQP
Excerpt: (§1) For capped cRNA synthesis, cDNAs were subcloned into the pT7N vector, which contains a T7 RNA polymerase promoter, the 5′- and 3′-UTR of Xenopus laevis beta-globin, and an encoded poly(A+) tail (Cary R B, Klymkowsky M W, Evans R M, Domingo A, Dent J A, Backhus L E (1994) Vimentin's tail interacts with actin-containing structures in vivo. J Cell Sci 107:1609-1622.). The pT7NcDNA constructs were linearized with Sal I (ACC-2D6.3) or BamHI (ACC-1G6.4) and transcribed using the MEGAscript Kit (Ambion, Austin, Tex., USA). Synthesized cRNAs were recovered by LiCl precipitation and resuspended in nuclease-free H2O at final concentration of 1 microgram/ml.
(§2) Oocytes were harvested from mature female Xenopus leavis according to standard procedures (Goldin, A. L. (1992) Maintenance of Xenopus laevis and oocyte injection. Methods Enzymol. 207: 266-79.). To remove inner ovarian epithelium, thecal cell layer, and follicular cells, the ovarian pieces were placed in OR-2 solution: 82.5 mM NaCl, 2 mM KCl, 1 mM MgCl2, and 5 mM Hepes (pH 7.5) containing 1 mg/ml type I collagenase (Sigma, St Louis Mo., USA) either for 3 hours at 20° C. with gentle agitation or for 1 hour followed by manual defolliculization. The stage VI defolliculated oocytes were placed in ND96 solution (96 mM NaCl, 2 mM KCl, 1.8 mM CaCl2, 1 mM MgCl2, and 5 mM Hepes, pH7.5). Oocytes were injected with 40 nl of cRNA using the Nanoject system (Drummond Scientific, Broomall, Pa., USA). Injected oocytes were incubated at 20° C. in ND96 supplemented with […] gentamycin and […] pyruvate. Oocytes were allowed to express cRNA for two days before measurements were taken.
(§3) Two-electrode voltage-clamp recordings were performed using the AxoClamp 2B amplifier (Axon Instruments, Foster City, Calif., USA). Microelectrodes were pulled from borosilicate glass capillaries (Word Precision Instruments, Inc., Sarasota, Fla., USA) on the P-97 micropipette puller Sutter Instruments, Novato, Calif., USA). […] Each oocyte was placed in RC-12 recording chamber (Warner Instrument Inc., Hamden, Conn., USA) or a Maltese cross chamber (ALA Scientific Instruments, Westbury, N.Y., USA) and clamped at −80 mV. Data were acquired at 1 kHz using Clampex software (Axon Instruments, Foster City, Calif., USA).
(§4) Dose-response curves for agonists were generated by their applying the agonist in increasing concentrations followed by 3-9 min washes at each concentration. To determine EC50 and Hill coefficient agonist dose response curves were fit using the following equation: f(I)=(Imax[I]^n/(EC50^n+[I]^n))+Imin, where I is the normalized response to agonist at certain concentration, Imax is the maximal response elicited by a saturating concentration of agonist, EC50 is the concentration of agonist inducing half-maximal response, n is the Hill coefficient, and Imin is the normalized response at lowest agonist concentration.
(§5) The mean and standard error of the mean of peak current responses of at least three oocytes per experiment are represented.
(§6) All drugs were obtained from Sigma-Aldrich (St. Louis, Mo. USA) except imidicloprid (IMI) which was provided by Crompton Co. (Guelph, ON, Canada). Drugs were dissolved in ND96 except IMI, which was made as a stock solution in DMSO and diluted to working concentrations in ND96. If required, drug solutions were adjusted to pH 7.5 with either NaOH or HCl. Fresh solutions were prepared before measurements and stored at 4° C. for 1-5 days.

[2] = target: ACC-2D6.3 channel (Caenorhabditis elegans, UniProt Q18812); assay: cell-based
ACC-2D6.3 channel, sequence (Q18812 whole entry, looked up): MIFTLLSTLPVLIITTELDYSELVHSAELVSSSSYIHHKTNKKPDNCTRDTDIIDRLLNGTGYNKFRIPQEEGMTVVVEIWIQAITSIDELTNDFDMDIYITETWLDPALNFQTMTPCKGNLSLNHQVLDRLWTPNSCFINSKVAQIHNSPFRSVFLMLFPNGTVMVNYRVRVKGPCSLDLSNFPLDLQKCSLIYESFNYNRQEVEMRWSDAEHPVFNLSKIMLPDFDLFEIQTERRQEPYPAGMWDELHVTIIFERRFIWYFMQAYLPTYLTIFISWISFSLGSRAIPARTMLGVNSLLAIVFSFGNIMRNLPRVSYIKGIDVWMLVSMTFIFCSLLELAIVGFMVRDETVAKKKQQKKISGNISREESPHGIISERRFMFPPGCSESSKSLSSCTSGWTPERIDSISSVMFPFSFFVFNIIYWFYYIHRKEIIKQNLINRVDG
Excerpt: as §1, §2, §3, §4, §5, §6

[3] = tested on: ACC-3D10.5; assay: Two-electrode voltage-clamp of Xenopus oocytes injected with ACC-3D10.5 cRNA; type: cell-based, C. elegans; details: 1 mM
Protocol: (§7) Oocytes were harvested from mature female Xenopus leavis according to standard procedures (Goldin, A. L. (1992) Maintenance of Xenopus laevis and oocyte injection. Methods Enzymol. 207: 266-79.). To remove inner ovarian epithelium, thecal cell layer, and follicular cells, the ovarian pieces were placed in OR-2 solution: 82.5 mM NaCl, 2 mM KCl, 1 mM MgCl2, and 5 mM Hepes (pH 7.5) containing 1 mg/ml type I collagenase (Sigma, St Louis Mo., USA) either for 3 hours at 20° C. with gentle agitation or for 1 hour followed by manual defolliculization. The stage VI defolliculated oocytes were placed in ND96 solution (96 mM NaCl, 2 mM KCl, 1.8 mM CaCl2, 1 mM MgCl2, and 5 mM Hepes, pH7.5). Oocytes were injected with 40 nl of cRNA using the Nanoject system (Drummond Scientific, Broomall, Pa., USA). Injected oocytes were incubated at 20° C. in ND96 supplemented with 100 mg/ml gentamycin and 550 mg/ml pyruvate. Oocytes were allowed to express cRNA for two days before measurements were taken.

[4] = tested on: ACC-4E9.9; assay: Two-electrode voltage-clamp of Xenopus oocytes injected with ACC-4E9.9 cRNA; type: cell-based, C. elegans; details: 1 mM
Protocol: as §7

[5] = tested on: ACC-2D6.3+ACC-3D10.5; type: cell-based, C. elegans; details: 1 mM
Protocol: as §7

[6] = tested on: ACC-2D6.3+ACC-4E9.9; type: cell-based, C. elegans; details: 1 mM
Protocol: as §7

[7] = target: rat α9nAChRs (Rattus norvegicus, UniProt P43144); details: cited from earlier work
rat α9nAChRs, sequence (P43144 26-479): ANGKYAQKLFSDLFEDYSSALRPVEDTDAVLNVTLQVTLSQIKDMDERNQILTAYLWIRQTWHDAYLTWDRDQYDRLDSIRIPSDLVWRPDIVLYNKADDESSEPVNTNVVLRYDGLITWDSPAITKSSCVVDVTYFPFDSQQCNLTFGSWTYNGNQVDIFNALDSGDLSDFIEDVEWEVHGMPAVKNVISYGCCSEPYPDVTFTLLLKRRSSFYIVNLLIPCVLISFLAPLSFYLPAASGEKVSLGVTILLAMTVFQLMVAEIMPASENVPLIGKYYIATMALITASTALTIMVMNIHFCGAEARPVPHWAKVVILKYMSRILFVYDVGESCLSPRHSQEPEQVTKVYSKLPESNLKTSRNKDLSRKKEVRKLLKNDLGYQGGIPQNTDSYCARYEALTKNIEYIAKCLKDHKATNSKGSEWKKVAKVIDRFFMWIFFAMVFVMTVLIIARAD

[8] = target: Aplysia receptors mediating the slow desensitizing chloride-dependent response; details: cited from earlier work
[9] = read-out: Agonist: percentage of maximal acetylcholine-elicited response
[10] = concentration tested in brackets where printed
[11] = concentration tested in brackets where printed, listed as d-tubocurarine

Q: Which results are given for `C[N+](C)(C)CCCCCC[N+](C)(C)C` [C6, hexamethonium]?
A: agonist action (in words) [1]: simultaneously as an agonist and an antagonist; antagonist action (in words) [1]: antagonists; activation at 200 µM [1, 9]: 0%; activation at 1000 µM [1, 9]: 10 ± 2.6%; Agonist: percentage of maximal acetylcholine-elicited response [2]: 0%; antagonist action (in words) [2]: antagonists

Q: With `NCCCC(=O)O` [GABA] as the compound, how does the “response (in words)” value [1] read?
A: The value was “did not respond”.

Q: What about the “response (in words)” value ([2]; 1 mM) of the same compound?
A: The value was “did not respond”.

Q: What about the “response (in words)” value [3] of the same compound?
A: The value was “did not respond”.

Q: What about the “response (in words)” value [4] of the same compound?
A: The value was “did not respond”.

Q: And the “response (in words)” value [5]?
A: The value was “Neither did ACC-2D6.3+ACC-3D10.5 nor ACC-2D6.3+ACC-4E9.9 expressing oocytes respond”.

Q: What about the “response (in words)” value [6] of the same compound?
A: Its value is “Neither did ACC-2D6.3+ACC-3D10.5 nor ACC-2D6.3+ACC-4E9.9 expressing oocytes respond”.

Q: What does the source list for `O=[N+]([O-])NC1=NCCN1Cc1ccc(Cl)nc1` [IMI, imidacloprid]?
A: Antagonist: percentage decrease in a response to acetylcholine [1]: 0%; activation at 10 µM ([1]; compound at 10 μM, read-out: Agonist: percentage of maximal acetylcholine-elicited response): 0%; antagonist action (in words) [1, 10]: no effect; antagonist action (in words) [2]: only partially blocked

Q: For `CN1[C@@H]2CC[C@H]1C[C@@H](OC(=O)C(CO)c1ccccc1)C2` (stereo partly drawn) [atropine], which IC50 [7] is on record?
A: Its IC50 is 1 µM.

Q: And the “agonist action (in words)” value [7]?
A: Its value is “no agonistic”.

Q: What about the “antagonist action (in words)” value [7] of the same compound?
A: The value was “Antagonist”.

Q: Which results are given for `COc1cc2c3cc1Oc1cc(ccc1O)C[C@@H]1c4c(cc(OC)c(O)c4Oc4ccc(cc4)C[C@@H]3N(C)CC2)CC[N+]1(C)C` [d-TC, d-tubocurarine]?
A: Antagonist: percentage decrease in a response to acetylcholine [1]: 100^a ^ %; IC50 ([1]; Table 4, order of magnitude, read-out: IC50 (range or bound)): < 20 µM; Agonist: percentage of maximal acetylcholine-elicited response ([1]; compound at 20 μM): 0%; antagonist action (in words) [1, 10]: Antagonist; antagonist action (in words) [1, 11]: irreversibly; Agonist: percentage of maximal acetylcholine-elicited response ([2]; compound at 20 μM): 0%; antagonist action (in words) [2, 10]: Antagonist; antagonist action (in words) [2, 11]: irreversibly; IC50 ([2]; read-out: IC50 (range or bound), Table 4, order of magnitude): < 20 µM; IC50 ([8]; Table 4): ~40 µM; antagonist action (in words) [8]: Antagonist; IC50 ([7]; Table 4, read-out: IC50): 0.3 µM; antagonist action (in words) [7]: Antagonist

Q: Which results are given for `CO[C@H]1CC=C2CCN3CCC4=C(CC(=O)OC4)[C@]23C1` [dβe, dihydro-β-erythroidine]?
A: IC50 ([1]; Table 4, order of magnitude, read-out: IC50 (range)): ~100 µM; Agonist: percentage of maximal acetylcholine-elicited response ([1]; compound at 0.4 mM): 0%; antagonist action (in words) [1, 10]: Antagonist; antagonist action (in words) ([1]; concentration tested in brackets where printed, listed as Dihydro-β-erythroidine): antagonist; antagonist action (in words) ([1]; concentration tested in brackets where printed, listed as dihydro-β-erythroidine): antagonists; Agonist: percentage of maximal acetylcholine-elicited response [2]: 0%; IC50 [2]: ~10 µM; IC50 ([8]; Table 4): ~20 µM; antagonist action (in words) [8]: Antagonist; IC50 ([7]; Table 4, read-out: IC50): 24.2 µM; antagonist action (in words) [7]: Antagonist

Q: With `N[C@@H](CCC(=O)O)C(=O)O` [glutamate] as the compound, how does the “response (in words)” value [1] read?
A: Its value is “did not respond”.

Q: What about the “response (in words)” value ([2]; 1 mM) of the same compound?
A: Its value is “did not respond”.

Q: What about the “response (in words)” value [3] of the same compound?
A: Its value is “did not respond”.

Q: What about the “response (in words)” value [4] of the same compound?
A: Its value is “did not respond”.

Q: And the “response (in words)” value [5]?
A: The value was “Neither did ACC-2D6.3+ACC-3D10.5 nor ACC-2D6.3+ACC-4E9.9 expressing oocytes respond”.

Q: What about the “response (in words)” value [6] of the same compound?
A: Its value is “Neither did ACC-2D6.3+ACC-3D10.5 nor ACC-2D6.3+ACC-4E9.9 expressing oocytes respond”.

Q: With `NCC(=O)O` [glycine] as the compound, how does the “response (in words)” value [1] read?
A: Its value is “did not respond”.

Q: What about the “response (in words)” value [3] of the same compound?
A: The value was “did not respond”.

Q: What about the “response (in words)” value [4] of the same compound?
A: The value was “did not respond”.

Q: With `NCCc1c[nH]cn1` [histamine] as the compound, how does the “response (in words)” value [1] read?
A: Its value is “did not respond”.

Q: And the “response (in words)” value [3]?
A: Its value is “did not respond”.

Q: What about the “response (in words)” value [4] of the same compound?
A: Its value is “did not respond”.

Q: For `C[C@@H]1O[C@H](C[N+](C)(C)C)C[C@H]1O` [muscarine], which “Antagonist: percentage decrease in a response to acetylcholine” value (shortened to “Antagonist: percentage decrease”) [1] is on record?
A: The value was 51.6 ± 5.9%.

Q: What about the “IC50 (range)” value [1] of the same compound?
A: Its value is “IC50: mM range”.

Q: What about the “agonist action (in words)” value [1] of the same compound?
A: Its value is “no agonistic activity”.

Q: What about the “antagonist action (in words)” value [1] of the same compound?
A: The value was “Antagonist; also recorded: weak antagonistic activity”.

Q: What about the activation at 1000 µM [1, 9] of the same compound?
A: The activation at 1000 µM was 0%.

Q: What about the IC50 [7] of the same compound?
A: Its IC50 is 84 µM.

Q: And the “agonist action (in words)” value [7]?
A: Its value is “no agonistic activity”.

Q: What about the “antagonist action (in words)” value [7] of the same compound?
A: Its value is “Antagonist”.

Q: With `NCCc1c[nH]c2ccc(O)cc12` [serotonin] as the compound, how does the “response (in words)” value [1] read?
A: Its value is “not observed”.

Q: And the activation at 1000 µM [1, 9]?
A: The activation at 1000 µM was 0%.

Q: What about the current response ([2]; 1 mM) of the same compound?
A: The current response was 10-30 nA.

Q: What about the “Agonist: percentage of maximal acetylcholine-elicited response” value ([2]; compound at 1 mM) of the same compound?
A: Its value is 3.7 ± 0.4%.

Q: What about the “response (in words)” value [3] of the same compound?
A: The value was “not observed”.

Q: What about the “response (in words)” value [4] of the same compound?
A: The value was “not observed”.

Q: What about the “response (in words)” value [5] of the same compound?
A: The value was “Neither did ACC-2D6.3+ACC-3D10.5 nor ACC-2D6.3+ACC-4E9.9 expressing oocytes respond”.

Q: And the “response (in words)” value [6]?
A: Its value is “Neither did ACC-2D6.3+ACC-3D10.5 nor ACC-2D6.3+ACC-4E9.9 expressing oocytes respond”.

Q: Which results are given for `O=C1C[C@@H]2OCC=C3CN4CC[C@]56c7ccccc7N1[C@H]5[C@H]2[C@H]3C[C@H]46` [strychnine]?
A: Antagonist: percentage decrease in a response to acetylcholine [1]: 96 ± 1.2%; IC50 ([1]; IC50 (block of channel)): 4.61 ± 0.27 µM; IC50 ([1]; IC50 (range or bound)): ~10 µM; activation at 50 µM [1, 9]: 0%; Agonist: percentage of maximal acetylcholine-elicited response [2]: 0%; antagonist action (in words) [2]: Antagonist; estimated Hill coefficient (antagonist) [2]: 1.38±0.12; IC50 ([2]; IC50 (block of channel)): 2.95 ± 0.8 µM; IC50 ([2]; IC50 (range or bound)): ~10 µM; IC50 [7]: 0.0179 µM

Q: With α-bungarotoxin [α-BT] as the compound, how does the “Agonist: percentage of maximal acetylcholine-elicited response” value [1] read?
A: The value was 0%.

Q: What about the “Antagonist: percentage decrease” value [1] of the same compound?
A: Its value is 0%.

Q: And the “antagonist action (in words)” value [1]?
A: The value was “no effect; also recorded: not blocked; also recorded: no antagonistic”.

Q: And the “Agonist: percentage of maximal acetylcholine-elicited response” value [2]?
A: Its value is 0%.

Q: What about the “Antagonist: percentage decrease” value [2] of the same compound?
A: The value was 0%.

Q: And the IC50 [8]?
A: The IC50 was ~1 µM.

Q: And the “antagonist action (in words)” value [8]?
A: Its value is “Antagonist”.

Q: What about the “antagonist action (in words)” value [7] of the same compound?
A: Its value is “Antagonist”.

Q: And the IC50 ([7]; read-out: IC50)?
A: The IC50 was 0.004 µM.
